Test results published in patent publication US20070264679A1, “Method for analyzing the activity of lipoxygenase using a water-soluble substrate” (Chungnam National University Industry Collaboration …, priority 2006, published 2007).

Assays:
[1] = biological target: T1, soybean lipoxygenase-1 (LOX-1) (Glycine max, UniProt P08170); assay: Kinetics of oxygenation of linoleic acid, soybean lysoPC or linoleoyl-lysoPC by soybean LOX-1 (absorbance at 234 nm); type: biochemical; conditions: for Km: 50 mM borax buffer pH 9.0, 25° C., Lineweaver Burke plot; for Vm: soybean LOX-1, 50 mM borax buffer pH 9.0, 25° C., unit = one micromole conjugated diene per min
T1 construct: purchased Sigma-Aldrich Corp (St. Louis, Mo., USA) lipoxidase Type I-B
T1 sequence (P08170 1-839): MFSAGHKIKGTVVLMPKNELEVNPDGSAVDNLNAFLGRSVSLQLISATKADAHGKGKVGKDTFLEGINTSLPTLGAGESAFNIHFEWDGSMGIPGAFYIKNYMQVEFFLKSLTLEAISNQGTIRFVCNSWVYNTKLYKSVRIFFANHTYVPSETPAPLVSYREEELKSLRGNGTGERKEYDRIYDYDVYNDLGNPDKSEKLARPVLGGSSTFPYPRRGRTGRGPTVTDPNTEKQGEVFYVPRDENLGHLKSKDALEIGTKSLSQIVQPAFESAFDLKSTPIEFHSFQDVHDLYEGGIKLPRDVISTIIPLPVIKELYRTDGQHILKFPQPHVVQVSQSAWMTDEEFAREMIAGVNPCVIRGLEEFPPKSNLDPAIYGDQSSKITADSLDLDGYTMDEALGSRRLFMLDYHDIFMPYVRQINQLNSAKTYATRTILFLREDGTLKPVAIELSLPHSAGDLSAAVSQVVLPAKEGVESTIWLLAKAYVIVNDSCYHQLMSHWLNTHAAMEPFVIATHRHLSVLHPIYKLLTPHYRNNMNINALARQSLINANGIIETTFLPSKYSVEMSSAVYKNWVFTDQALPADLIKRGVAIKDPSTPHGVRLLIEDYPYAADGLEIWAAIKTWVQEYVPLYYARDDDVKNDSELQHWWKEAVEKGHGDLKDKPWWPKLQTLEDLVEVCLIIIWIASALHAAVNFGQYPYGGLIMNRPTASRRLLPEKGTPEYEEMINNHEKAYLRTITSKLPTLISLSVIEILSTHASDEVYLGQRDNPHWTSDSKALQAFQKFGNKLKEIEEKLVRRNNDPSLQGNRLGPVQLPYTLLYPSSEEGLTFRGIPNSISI
Method: Lipoxygenase-1 (LOX-1) activity was monitored at 25° C. by measuring the increase in absorbance at 234 nm due to the formation of hydroperoxide (ε234=25,000 M^−1 cm^−1) as previously reported (Axelrod et al, Methods Enzymol. 71 (1981) 441-451; Egmond et al, Eur. J. Biochem. 61 (1976) 93-100). […] One unit is defined as the amount of LOX-1 that can produce one micromole of conjugated diene per min.
LOX-1 was purified from soy bean lipoxidase preparation (Type I-B) according to the method of Finazzi Agro et al (Finazzi-Agro et al, Biochim. Biophys. Acta 326 (1973) 462-470). Briefly, soybean LOX-1 (100 mg) was dissolved in 0.1 M phosphate buffer (pH 6.8), and applied to DEAE Sephacel (1.5×25 cm). […] Protein amount was determined according to Lowry method (O. H. Lowry, N. J. Rosenbrough, A. L. Farr, R. J. Randall, J. Biol. Chem. 193 (1951) 265-275).
Next, the effect of linoleoyl-lysoPC concentration on LOX-1-catalyzed oxygenation of linoleoyl-lysoPC was examined.

Reticulocyte LOX = biological target: T2, Reticulocyte LOX (Oryctolagus cuniculus, UniProt P12530); assay: Kinetics of oxygenation of linoleoylated substrates by reticulocyte LOX; type: biochemical, Rabbit; conditions: reticulocyte LOX 8.2 units/ml, 50 mM phosphate buffer pH 7.4, 25° C.; for Km: substrate 3-100 μM
T2 construct: purchased Biomol Inc. (Plymouth Meeting, Pa., USA)
T2 sequence (P12530 1-663): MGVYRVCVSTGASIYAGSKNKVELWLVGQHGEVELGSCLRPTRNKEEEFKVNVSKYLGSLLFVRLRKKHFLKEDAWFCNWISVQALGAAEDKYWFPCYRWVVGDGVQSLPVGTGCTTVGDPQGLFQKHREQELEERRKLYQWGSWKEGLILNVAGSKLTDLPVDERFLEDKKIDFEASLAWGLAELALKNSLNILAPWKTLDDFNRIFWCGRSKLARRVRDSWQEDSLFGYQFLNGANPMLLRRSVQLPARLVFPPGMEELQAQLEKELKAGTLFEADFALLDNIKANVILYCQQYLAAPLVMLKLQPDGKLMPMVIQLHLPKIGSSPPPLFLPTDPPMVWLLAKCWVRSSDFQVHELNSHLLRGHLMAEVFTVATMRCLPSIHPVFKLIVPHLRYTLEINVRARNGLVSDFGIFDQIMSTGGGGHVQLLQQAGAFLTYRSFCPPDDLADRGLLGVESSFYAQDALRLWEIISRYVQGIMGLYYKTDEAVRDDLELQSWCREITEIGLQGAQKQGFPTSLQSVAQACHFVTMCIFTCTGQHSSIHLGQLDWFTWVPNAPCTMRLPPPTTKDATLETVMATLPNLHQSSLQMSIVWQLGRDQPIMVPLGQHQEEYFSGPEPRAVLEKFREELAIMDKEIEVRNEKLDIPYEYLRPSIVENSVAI
From the text: (§1) Data were expressed as means ±S.D. of results from at least three independent experiments.

Porcine leukocyte LOX = biological target: T3, Porcine leukocyte LOX (Sus scrofa, UniProt P16469); assay: Kinetics of oxygenation of linoleoylated substrates by leukocyte LOX; type: biochemical; conditions: porcine leukocyte LOX 1.5 units/ml, 100 mM phosphate buffer pH 7.5, 5 mM EDTA; for Vm: 0.03% Tween 20; for Km: substrate 3-100 μM, 0.03% Tween 20, 25° C.
T3 construct: purchased Cayman Chemical Co. (Ann Arbor, Mich., USA)
T3 sequence (P16469 1-663): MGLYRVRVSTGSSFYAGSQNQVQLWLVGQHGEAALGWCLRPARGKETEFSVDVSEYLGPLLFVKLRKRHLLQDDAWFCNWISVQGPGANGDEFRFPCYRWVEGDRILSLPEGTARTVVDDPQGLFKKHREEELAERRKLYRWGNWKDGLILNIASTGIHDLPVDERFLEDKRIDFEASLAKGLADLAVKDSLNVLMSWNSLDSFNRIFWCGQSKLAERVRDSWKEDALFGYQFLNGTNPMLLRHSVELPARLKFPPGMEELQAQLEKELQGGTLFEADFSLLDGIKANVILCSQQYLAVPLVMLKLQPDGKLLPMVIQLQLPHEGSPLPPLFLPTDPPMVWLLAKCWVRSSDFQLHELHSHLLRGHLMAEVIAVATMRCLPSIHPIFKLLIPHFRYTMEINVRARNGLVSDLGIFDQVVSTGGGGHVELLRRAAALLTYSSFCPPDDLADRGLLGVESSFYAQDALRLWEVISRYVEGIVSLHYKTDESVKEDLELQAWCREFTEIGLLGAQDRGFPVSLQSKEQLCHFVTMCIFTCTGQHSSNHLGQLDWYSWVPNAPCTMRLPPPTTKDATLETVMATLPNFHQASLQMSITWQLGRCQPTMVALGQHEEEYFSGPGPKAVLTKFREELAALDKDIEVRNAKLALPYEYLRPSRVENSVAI
From the text: as §1

Row | SMILES | Km [1] | Vm [1] | Vm (Reticulocyte LOX) | Km (Reticulocyte LOX) | Vm (Porcine leukocyte LOX) | Km (Porcine leukocyte LOX) | Vm ([1]; listed as linoleoyl-lysoPC)
1 | CCCCC/C=C\C/C=C\CCCCCCCC(=O)O [Linoleic acid, linoleic acid] | 12 ± 0.7 µM | 114.3 ± 6.0 units/mg | 545 ± 5 units/mg | 12.1 ± 0.8 µM | 32.7 ± 1.93 units/mg | 31.2 ± 4.6 µM | 
2 | CCCCC/C=C\C/C=C\CCCCCCCC(=O)OCC(O)COP(=O)([O-])OCC[N+](C)(C)C (stereo not shown) [Linoleoyl-lysoPC, 1-linoleoyl Lysophosphatidylcholine] | 12.9 µM | 167.5 ± 10.4 units/mg | 1622 ± 19 units/mg | 17.5 ± 0.9 µM | 14.42 ± 0.78 units/mg | 15.1 ± 1.34 µM | 167.5 units/mg
